The target in series [1] is T1, Nuclear receptor ROR-gamma (Homo sapiens, UniProt P51449).
T1 sequence (P51449 whole entry): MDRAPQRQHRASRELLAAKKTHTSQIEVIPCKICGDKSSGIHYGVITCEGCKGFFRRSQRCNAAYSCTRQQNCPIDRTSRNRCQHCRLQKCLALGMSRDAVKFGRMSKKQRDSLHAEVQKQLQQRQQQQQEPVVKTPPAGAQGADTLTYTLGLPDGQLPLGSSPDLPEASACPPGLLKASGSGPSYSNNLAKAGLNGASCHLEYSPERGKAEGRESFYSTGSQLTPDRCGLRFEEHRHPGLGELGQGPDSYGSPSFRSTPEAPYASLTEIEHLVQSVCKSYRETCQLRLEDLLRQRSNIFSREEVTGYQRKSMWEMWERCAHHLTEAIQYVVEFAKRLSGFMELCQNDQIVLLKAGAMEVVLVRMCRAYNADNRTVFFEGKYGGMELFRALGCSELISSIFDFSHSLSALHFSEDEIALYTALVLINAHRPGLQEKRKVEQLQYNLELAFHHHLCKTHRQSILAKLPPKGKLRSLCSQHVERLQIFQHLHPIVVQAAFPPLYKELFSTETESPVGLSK
The series is described as follows: Inhibition of GAL4 DNA-binding domain fused RORgamma (unknown origin) transfected in CHO-K1 cells incubated for 2 days by luciferase assay. Type of series: cell-based.

Series [2] is described as follows: Lipophilicity, logD of compound by RP-HPLC analysis. Type of series: physicochemical.
A short description of series [3]: Metabolic stability in human liver microsomes assessed as compound remaining at 5 umol/L measured after 60 mins by UPLC/MS analysis. Type of series: ADME, Microsome. The following applies: dose 5 µmol/L, read-out: Stability. On the technique in general: Microsomes from liver hold many membrane-bound enzymes, among them those of drug oxidation.
The nature of series [4]: Apparent permeability in human Caco-2 cells at 25 umol/L incubated for 2 hrs by LC/MS/MS analysis. Type of series: ADME, cell-based. The following applies: dose 25 µmol/L. A general note: Passage across Caco-2 layers is used to estimate intestinal permeability.

Consider `Cc1cc(C)c(C)c(NC(=O)C[C@H](CC(=O)O)c2noc([C@H]3C[C@@H](CC(C)C)C3)c2C2CC2)c1`, for which the EC50 (usually the concentration giving half of the maximal effect) in series [1] was found to be 0.063 µM. For the same compound, the logD (as a rule, lipophilicity at a set pH, counting ionised and neutral species) in series [2] was 4.5. The remaining at 1 h, 5 µM in series [3] was 64%. Also, in series [4], the Papp (in general, a coefficient for how fast a substance crosses the barrier) at 2 h, 25 µM was 17 ×10⁻⁶ cm/s.
`Cc1ccc(NC(=O)C[C@H](CC(=O)O)c2noc([C@H]3C[C@@H](C(C)(C)C(C)C)C3)c2C2CC2)c(C)c1` displayed a logD in series [2] of 4.7. Also, the remaining at 1 h, 5 µM in series [3] was 60%. Besides, the Papp at 2 h, 25 µM in series [4] was 23.6 ×10⁻⁶ cm/s.
The compound `Cc1ccc(NC(=O)C[C@@H](c2noc([C@H]3C[C@@H](CC(C)C)C3)c2C2CC2)C(C)(C)C(=O)O)c(C)c1` had an EC50 in series [1] of 0.26 µM. Further, in series [2], the logD was 5. The remaining at 1 h, 5 µM in series [3] was determined as 77%. In addition, the Papp at 2 h, 25 µM in series [4] came out at 27.6 ×10⁻⁶ cm/s.
The like results for `Cc1ccc(NC(=O)C[C@H](CC(=O)O)c2noc([C@H]3C[C@@H](CC(C)C)C3)c2C2CC2)c(Cl)c1` were, in that order, 0.043 µM, 4.4, 67% and 27.4 ×10⁻⁶ cm/s.
With `Cc1ccc(NC(=O)C[C@H](CC(=O)O)c2noc([C@H]3C[C@@H](CC(C)C)C3)c2C2CC2)c(C)c1`, the logD in series [2] came out at 4.3. For the same compound, the remaining at 1 h, 5 µM in series [3] is 78%. In series [4], the Papp at 2 h, 25 µM amounted to 40.6 ×10⁻⁶ cm/s.
`Cc1ccc(NC(=O)CC(Cc2nnn[nH]2)c2nnc([C@H]3C[C@@H](CC(C)C)C3)n2C2CC2)c(C)c1` (mixture of isomers): the EC50 in series [1] amounted to 6 µM. The compound further gave a logD in series [2] of 3.1. The remaining at 1 h, 5 µM in series [3] was determined as 91%. Further, the Papp at 2 h, 25 µM in series [4] is 0.2 ×10⁻⁶ cm/s.
On to `Cc1ccc(NC(=O)CC(c2nnc([C@H]3C[C@@H](CC(C)C)C3)n2C2CC2)C2CN(C)C2)c(C)c1` (mixture of isomers), for which the midpoint of the response in series [1], the EC50, lay at 6.9 µM. Further, the logD in series [2] was found to be 3.8. Further, the remaining at 1 h, 5 µM in series [3] stood at 78%. Moreover, in series [4], the Papp at 2 h, 25 µM worked out at 0.7 ×10⁻⁶ cm/s.
As for `Cc1ccc(NC(=O)CC(CC(=O)N(C)C)c2nnc([C@H]3C[C@@H](CC(C)C)C3)n2C2CC2)c(C)c1` (mixture of isomers), in series [1], the EC50 is 0.15 µM. Moreover, in series [2], the logD was determined as 4.3. In addition, the remaining at 1 h, 5 µM in series [3] was 27%. In addition, in series [4], the Papp at 2 h, 25 µM worked out at 18.3 ×10⁻⁶ cm/s.
The like results for `Cc1ccc(NC(=O)C[C@H](CC(C)(C)O)c2nnc([C@H]3C[C@@H](CC(C)C)C3)n2C2CC2)c(C)c1.Cl` were, in that order, 0.03 µM, 4.4, 0% and 25.3 ×10⁻⁶ cm/s.
The like results for `Cc1ccc(NC(=O)C[C@H](Cc2nc(C(=O)O)cs2)c2noc([C@H]3C[C@@H](CC(C)C)C3)c2C2CC2)c(C)c1` were, in that order, 0.11 µM, 4.2, 71% and 7.5 ×10⁻⁶ cm/s.
The like results for `Cc1ccc(NC(=O)C[C@H](Cc2nnn[nH]2)c2noc([C@H]3C[C@@H](CC(C)C)C3)c2C2CC2)c(C)c1` were, in that order, 0.063 µM, 4.1, 0% and 21.8 ×10⁻⁶ cm/s.
For `Cc1cccc(NC(=O)C[C@H](CC(=O)O)c2noc([C@H]3C[C@@H](CC(C)C)C3)c2C2CC2)c1C`, the log distribution coefficient (logD) in series [2] was determined as 4.3. In series [3], the remaining at 1 h, 5 µM was 67%. Further, the Papp at 2 h, 25 µM in series [4] is 35.5 ×10⁻⁶ cm/s.
The like results for `Cc1ccc(NC(=O)C[C@@H](c2noc([C@H]3C[C@@H](CC(C)C)C3)c2C2CC2)C(C)(C)CC(=O)O)c(C)c1` were, in that order, 5.2, 53% and 27.7 ×10⁻⁶ cm/s.
For `Cc1ccc(NC(=O)C[C@H](CC(=O)O)c2noc([C@H]3C[C@@H](CC(C)C)C3)c2C2CC2)c(F)c1` the same measures were 4.2, 67% and 33.1 ×10⁻⁶ cm/s.
In series [1], `CC(C)C[C@H]1C[C@@H](c2onc([C@@H](CC(=O)O)CC(=O)Nc3ccc(Cl)cc3F)c2C2CC2)C1` displayed an EC50 of 0.097 µM. In series [2], this compound came in with a logD of 4.4. The remaining at 1 h, 5 µM in series [3] was 67%. Further, the apparent permeability coefficient (Papp) at 2 h, 25 µM in series [4] was found to be 29.9 ×10⁻⁶ cm/s.
In series [2], `Cc1ccc(NC(=O)C[C@H](Cc2ccc(C(=O)O)cc2)c2noc([C@H]3C[C@@H](CC(C)C)C3)c2C2CC2)c(C)c1` (mixture of isomers) showed a logD of 4.7. The remaining at 1 h, 5 µM in series [3] was 67%. The Papp at 2 h, 25 µM in series [4] stood at 14.3 ×10⁻⁶ cm/s.
Consider `Cc1ccc(NC(=O)C[C@H](CC(=O)O)c2noc([C@H]3C[C@@H](CC(C)C)C3)c2C2CC2)c(C)c1C`, for which, in series [2], the logD worked out at 4.4. The remaining at 1 h, 5 µM in series [3] turned out to be 76%. Also, the Papp at 2 h, 25 µM in series [4] was determined as 21.8 ×10⁻⁶ cm/s.
As to `Cc1ccc(NC(=O)C[C@H](CCC(=O)O)n2ncc([C@H]3C[C@@H](CC(C)(C)C)C3)c2C2CC2)c(Cl)c1`, the logD in series [2] was 5. Besides, the remaining at 1 h, 5 µM in series [3] worked out at 42%. Moreover, the Papp at 2 h, 25 µM in series [4] is 14.5 ×10⁻⁶ cm/s.
For `Cc1ccc(NC(=O)C[C@H](c2nnc([C@H]3C[C@@H](CC(C)C)C3)n2C2CC2)[C@H]2C[C@@H](O)C2)c(C)c1` the same measures were 4.1, 0% and 15.2 ×10⁻⁶ cm/s.
For `Cc1ccc(NC(=O)C[C@H](OCC(=O)O)c2noc([C@H]3C[C@@H](CC(C)C)C3)c2C2CC2)c(C)c1` the same measures were 3.8, 64% and 24.9 ×10⁻⁶ cm/s.
For `Cc1ccc(NC(=O)C[C@H](CCC(=O)O)C(=O)N(C[C@H]2C[C@@H](CC(C)(C)C)C2)C2CC2)c(Cl)c1` (mixture of isomers) the same measures were 4.5, 73% and 30.6 ×10⁻⁶ cm/s.
Compound `CC(C)C[C@H]1C[C@@H](c2onc([C@@H](CC(=O)O)CC(=O)Nc3ccc(F)cc3Cl)c2C2CC2)C1` gave a logD in series [2] of 4.3. The remaining at 1 h, 5 µM in series [3] is 74%. Moreover, the Papp at 2 h, 25 µM in series [4] is 33.5 ×10⁻⁶ cm/s.
Consider `CCC(CC)C[C@H]1C[C@@H](c2onc([C@@H](CC(=O)O)CC(=O)Nc3ccc(C)cc3C)c2C2CC2)C1`, for which the logD in series [2] amounted to 4.9. Besides, the remaining at 1 h, 5 µM in series [3] stood at 88%. In addition, the Papp at 2 h, 25 µM in series [4] stood at 13.6 ×10⁻⁶ cm/s.
The like results for `CCc1c([C@@H](CC(=O)O)CC(=O)Nc2ccc(C)cc2C)noc1[C@H]1C[C@@H](CC(C)C)C1` were, in that order, 4.2, 68% and 37.9 ×10⁻⁶ cm/s.
For `Cc1ccc(NC(=O)C[C@H](CC(=O)O)c2noc([C@H]3C[C@@H](CCC(C)C)C3)c2C2CC2)c(C)c1` the same measures were 4.7, 90% and 21.5 ×10⁻⁶ cm/s.
For the compound `Cc1ccc(NC(=O)CC(CCC(=O)O)c2ncnc([C@H]3C[C@@H](CC(C)(C)C)C3)c2C2CC2)c(Cl)c1` (mixture of isomers), the EC50 in series [1] came to 0.016 µM. Moreover, the remaining at 1 h, 5 µM in series [3] amounted to 52%. The Papp at 2 h, 25 µM in series [4] worked out at 20.7 ×10⁻⁶ cm/s.
`Cc1ccc(NC(=O)CCc2nnc([C@H]3C[C@@H](CC(C)C)C3)n2C2CC2)c(C)c1`: the logD in series [2] stood at 4.4. For the same compound, the remaining at 1 h, 5 µM in series [3] is 39%.
As to `Cc1ccc(NC(=O)C[C@H](C[C@H]2C[C@@H](C(=O)O)C2)c2noc([C@H]3C[C@@H](CC(C)C)C3)c2C2CC2)c(C)c1`, the logD in series [2] worked out at 5.1. The remaining at 1 h, 5 µM in series [3] stood at 69%. In addition, in series [4], the Papp at 2 h, 25 µM stood at 20.9 ×10⁻⁶ cm/s.
For `Cc1cc(C)cc(NC(=O)C[C@H](CC(=O)O)c2noc([C@H]3C[C@@H](CC(C)C)C3)c2C2CC2)c1` the same measures were 4.5, 52% and 33.7 ×10⁻⁶ cm/s.
For `Cc1ccc(NC(=O)C[C@H](CCC(=O)O)c2noc([C@H]3C[C@@H](CC(C)C)C3)c2C2CC2)c(C)c1` the same measures were 4.7, 61% and 31.4 ×10⁻⁶ cm/s.
The like results for `Cc1ccc(NC(=O)C[C@H](CC(=O)O)c2noc([C@H]3C[C@@H](CCC(C)(C)C)C3)c2C2CC2)c(C)c1` were, in that order, 5, 61% and 22.8 ×10⁻⁶ cm/s.
Consider `CCC(C)(C)C[C@H]1C[C@@H](c2onc([C@@H](CC(=O)O)CC(=O)Nc3ccc(C)cc3C)c2C2CC2)C1`, for which the logD in series [2] stood at 5. Besides, the remaining at 1 h, 5 µM in series [3] stood at 65%. The Papp at 2 h, 25 µM in series [4] stood at 22.5 ×10⁻⁶ cm/s.
For `Cc1ccc(NC(=O)C[C@H](CC(=O)O)c2noc([C@H]3C[C@@H](CC(C)C)C3)c2C2CC2)cc1C` the same measures were 4.5, 65% and 32.4 ×10⁻⁶ cm/s.
As to `CC(=O)N1C[C@H](C(=O)Nc2ccc(C)cc2C)[C@@H](c2nnc([C@H]3C[C@@H](CC(C)C)C3)n2C2CC2)C1`, in series [3], the remaining at 1 h, 5 µM was found to be 61%. Further, the Papp at 2 h, 25 µM in series [4] is 19.8 ×10⁻⁶ cm/s.
As for `Cc1cccc(C)c1NC(=O)C[C@H](CC(=O)O)c1noc([C@H]2C[C@@H](CC(C)C)C2)c1C1CC1`, the logD in series [2] amounted to 4.2. In addition, the remaining at 1 h, 5 µM in series [3] is 85%. In series [4], the Papp at 2 h, 25 µM amounted to 39.6 ×10⁻⁶ cm/s.
The like results for `Cc1cc(C)c(NC(=O)C[C@H](CC(=O)O)c2noc([C@H]3C[C@@H](CC(C)C)C3)c2C2CC2)cc1C` were, in that order, 4.6, 78% and 32 ×10⁻⁶ cm/s.

The values above are taken from ChEMBL document CHEMBL5537159, “Discovery and SAR of JTE-151: A Novel RORγ Inhibitor for Clinical Development” (J Med Chem, 2024).
